Experiment [1] is described as follows: Cytotoxicity against human FRO cells assessed as reduction in cell viability incubated for 72 hrs by Cell-titer 96 aqueous one assay. Type of experiment: functional, cell-based.
The next experiment deals with 8505C. The experiment is described as follows: Cytotoxicity against human 8505C cells assessed as reduction in cell viability incubated for 72 hrs by Cell-titer 96 aqueous one assay. Format: functional, cell-based.
Experiment [2] is described as follows: Potency index, ratio of IC50 for mycalol to IC50 for test compound against human FRO cells assessed as reduction in cell viability incubated for 72 hrs by Cell-titer 96 aqueous one assay. Type of experiment: functional.
A short description of experiment [3]: Cytotoxicity against human ACT1 cells assessed as reduction in cell viability incubated for 72 hrs by Cell-titer 96 aqueous one assay. Type of experiment: functional, cell-based.
Experiment [4] can be described thus: Cytotoxicity against human FRO cells assessed as reduction in cell viability in presence of shHMGA1 incubated for 72 hrs by Cell-titer 96 aqueous one assay. Format: functional, cell-based.
The nature of experiment [5]: Cytotoxicity against human FRTL5 cells assessed as reduction in cell viability incubated for 72 hrs by Cell-titer 96 aqueous one assay. Format: cell-based. To be noted: FRTL-5, 72 h.

As to `CCCCC[C@H](CCCCCCCCCC[C@H](O)[C@H](O)CC[C@H](O)[C@H](O)CCOC[C@H](O)CO)OC(C)=O`, the IC50 (usually the concentration needed to halve the response being measured) in experiment [1] is 16 µM.

Turning to `CCCCCCC[C@H](CCCCCCCCCC[C@H](O)[C@H](O)CC[C@H](O)[C@H](O)CCOC[C@H](O)CO)OC(=O)C[C@H](C)O`, the IC50 in experiment [1] was 16 µM.

With `CCCCCCCC[C@H](CCCCCCCCCC[C@H](O)[C@H](O)CC[C@H](O)[C@H](O)CCOC[C@H](O)CO)OC(=O)C[C@H](C)O`, the IC50 in experiment [1] was 20 µM.

In the case of `CCCCCCCCC[C@H](CCCCCCCCCC[C@H](O)[C@H](O)CC[C@H](O)[C@H](O)CCOC[C@H](O)CO)OC(=O)C[C@H](C)O`, the IC50 in experiment [1] stood at 4.7 µM.

Take `CCCCCCC[C@H](CCCCCCCCCC[C@H](O)[C@H](O)CC[C@H](O)[C@H](O)CCOC[C@H](O)CO)OC(C)=O` (stereo in doubt; form 1): the IC50 is 2.6 µM in the experiment with 8505C (Homo sapiens, 8505C, 72 h); 2.3 µM in experiment [1]; 4.8 µM in experiment [3] (Homo sapiens, 72 h); 3.3 µM in experiment [4] (Homo sapiens, 72 h). The “Ratio IC50” value in experiment [2] is given as 6.

For the compound `CCCCCCC[C@H](CCCCCCCCCC[C@H](O)[C@H](O)CC[C@H](O)[C@H](O)CCOC[C@H](O)CO)OC(C)=O` (stereo in doubt; form 2), the IC50 in the experiment with 8505C (8505c) is 2.1 µM; in experiment [5], more than 40 µM; in experiment [3] it was 5.1 µM; in experiment [4], 3.4 µM.

Values taken from ChEMBL document CHEMBL4177533, “Identification and Synthesis of Mycalol Analogues with Improved Potency against Anaplastic Thyroid Carcinoma Cell Lines” (J Nat Prod, 2017).
